Test results as given in publication PMC9974930 (Journal of medicinal chemistry, 2023).

Target: T1, recombinant human sEH (HsEH) (Homo sapiens, UniProt P34913)
T1 sequence (P34913 1-555): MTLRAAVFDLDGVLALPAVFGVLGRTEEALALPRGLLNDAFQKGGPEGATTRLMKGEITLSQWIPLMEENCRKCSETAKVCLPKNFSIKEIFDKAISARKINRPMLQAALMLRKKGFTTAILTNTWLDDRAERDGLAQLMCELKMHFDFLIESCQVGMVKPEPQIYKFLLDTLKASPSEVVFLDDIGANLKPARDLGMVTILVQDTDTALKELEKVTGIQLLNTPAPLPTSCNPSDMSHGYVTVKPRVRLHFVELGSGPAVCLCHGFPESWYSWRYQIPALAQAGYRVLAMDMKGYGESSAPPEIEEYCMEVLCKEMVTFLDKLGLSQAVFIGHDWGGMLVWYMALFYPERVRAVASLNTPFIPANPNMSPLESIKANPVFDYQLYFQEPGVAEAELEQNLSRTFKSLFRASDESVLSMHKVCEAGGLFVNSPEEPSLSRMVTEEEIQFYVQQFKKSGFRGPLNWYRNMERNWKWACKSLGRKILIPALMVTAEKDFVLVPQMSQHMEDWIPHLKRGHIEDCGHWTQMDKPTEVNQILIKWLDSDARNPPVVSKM
Test: biochemical
Conditions: for LLE (ligand lipophilicity efficiency): LLE = pIC50-cLogP

| SMILES | LLE (ligand lipophilicity efficiency) | IC50 |
| --- | --- | --- |
| CCN(CC)C(=O)C1CCN(C(=O)c2ccc(NC(=O)N[C@@]34C[C@@H]5C[C@@](C)(C[C@@](C)(C5)C3)C4)c(F)c2)CC1 [A1, 1-(4-(3-((1r,3R,5S,7r)-3,5-Dimethyladamantan-1-yl)ureido)-3-fluorobenzoyl)-N,N-diethylpiperidine-4-carboxamide] | 4.954 | – |
| C[C@]12C[C@@H]3C[C@](C)(C1)C[C@@](NC(=O)Nc1ccc(C(=O)N4CCC(C(=O)NCCO)CC4)cc1F)(C3)C2 [A2, 1-(4-(3-((1r,3R,5S,7r)-3,5-Dimethyladamantan-1-yl)ureido)-3-fluorobenzoyl)-N-(2-hydroxyethyl)piperidine-4-carboxamide] | 6.203 | – |
| CC(O)CNC(=O)C1CCN(C(=O)c2ccc(NC(=O)N[C@@]34C[C@@H]5C[C@@](C)(C[C@@](C)(C5)C3)C4)c(F)c2)CC1 (stereo partly drawn) [A3, 1-(4-(3-((1r,3R,5S,7r)-3,5-Dimethyladamantan-1-yl)ureido)-3-fluorobenzoyl)-N-(2-hydroxypropyl)piperidine-4-carboxamide] | 5.708 | – |
| C[C@]12C[C@@H]3C[C@](C)(C1)C[C@@](NC(=O)Nc1ccc(C(=O)N4CCCC(C(=O)O)C4)cc1F)(C3)C2 (stereo partly drawn) [A, 1-(4-(3-((1r,3R,5S,7r)-3,5-Dimethyladamantan-1-yl)ureido)-3-fluorobenzoyl)piperidine-3-carboxylic acid] | 4.979 | 4 nM |
| CCN(CC)C(=O)C1CCCN(C(=O)c2ccc(NC(=O)N[C@]34C[C@@H]5C[C@@](C)(C[C@@](C)(C5)C3)C4)c(F)c2)C1 (stereo partly drawn) [B1, 1-(4-(3-((1r,3R,5S,7S)-3,5-Dimethyladamantan-1-yl)ureido)-3-fluorobenzoyl)-N,N-diethylpiperidine-3-carboxamide] | 5.617 | – |
| C[C@]12C[C@@H]3C[C@](C)(C1)C[C@](NC(=O)Nc1ccc(C(=O)N4CCCC(C(=O)NCCO)C4)cc1F)(C3)C2 (stereo partly drawn) [B2, 1-(4-(3-((1r,3R,5S,7S)-3,5-dimethyladamantan-1-yl)ureido)-3-fluorobenzoyl)-N-(2-hydroxyethyl)piperidine-3-carboxamide] | 7.069 | – |
| CC(O)CNC(=O)C1CCCN(C(=O)c2ccc(NC(=O)N[C@]34C[C@@H]5C[C@@](C)(C[C@@](C)(C5)C3)C4)c(F)c2)C1 (stereo partly drawn) [B3, 1-(4-(3-((1r,3R,5S,7S)-3,5-Dimethyladamantan-1-yl)ureido)-3-fluorobenzoyl)-N-(2-hydroxypropyl)piperidine-3-carboxamide] | 6.779 | – |
| C[C@]12C[C@@H]3C[C@](C)(C1)C[C@@](NC(=O)Nc1ccc(C(=O)N4CCCC(C(=O)N5CCN(CCO)CC5)C4)cc1F)(C3)C2 (stereo partly drawn) [B4, 1-((1r,3R,5S,7r)-3,5-Dimethyladamantan-1-yl)-3-(2-fluoro-4-(3-(4-(2-hydroxyethyl)piperazine-1-carbonyl)piperidine-1-carbonyl)phenyl)urea] | 6.516 | – |
| CC(C)(C)OC(=O)N1CCN(CCNC(=O)C2CCC(NC(=O)c3ccc(NC(=O)N[C@@]45C[C@@H]6C[C@@](C)(C[C@@](C)(C6)C4)C5)c(F)c3)CC2)CC1 (stereo partly drawn) [C1, Tert-butyl-4-(2-(4-(4-(3-((1r,3R,5S,7r)-3,5-dimethyladamantan-1-yl)ureido)-3-fluorobenzamido)cyclohexane-1-carboxamido)ethyl)piperazine-1-carboxylate] | 2.272 | – |
| C[C@]12C[C@@H]3C[C@](C)(C1)C[C@@](NC(=O)Nc1ccc(C(=O)NC4CCC(C(=O)N5CCC(CCO)CC5)CC4)cc1F)(C3)C2 (stereo partly drawn) [C2, 4-(3-((1r,3R,5S,7r)-3,5-Dimethyladamantan-1-yl)ureido)-3-fluoro-N-(4-(4-(2-hydroxyethyl)piperidine-1-carbonyl)cyclohexyl)benzamide] | 3.655 | – |
| C[C@]12C[C@@H]3C[C@](C)(C1)C[C@@](NC(=O)Nc1ccc(C(=O)NC4CCC(C(=O)NCCO)CC4)cc1F)(C3)C2 (stereo partly drawn) [C3, 4-(3-((1r,3R,5S,7r)-3,5-Dimethyladamantan-1-yl)ureido)-3-fluoro-N-(4-((2-hydroxyethyl)carbamoyl)cyclohexyl)benzamide] | 6.100 | – |
| CC(O)CNC(=O)C1CCC(NC(=O)c2ccc(NC(=O)N[C@@]34C[C@@H]5C[C@@](C)(C[C@@](C)(C5)C3)C4)c(F)c2)CC1 (stereo partly drawn) [C4, 4-(3-((1r,3R,5S,7r)-3,5-Dimethyladamantan-1-yl)ureido)-3-fluoro-N-(4-((2-hydroxypropyl)carbamoyl)cyclohexyl)benzamide] | 5.438 | – |
| C[C@]12C[C@@H]3C[C@](C)(C1)C[C@@](NC(=O)Nc1ccc(C(=O)NC4CCC(C(=O)N(CCO)CCO)CC4)cc1F)(C3)C2 (stereo partly drawn) [C5, N-(4-(Bis(2-hydroxyethyl)carbamoyl)cyclohexyl)-4-(3-((1r,3R,5S,7r)-3,5-dimethyladamantan-1-yl)ureido)-3-fluorobenzamide] | 5.869 | – |
| C[C@]12C[C@@H]3C[C@](C)(C1)C[C@@](NC(=O)Nc1ccc(C(=O)NC4CCC(C(N)=O)CC4)cc1F)(C3)C2 (stereo partly drawn) [C6, N-(4-Carbamoylcyclohexyl)-4-(3-((1r,3R,5S,7r)-3,5-dimethyladamantan-1-yl)ureido)-3-fluorobenzamide] | 5.746 | – |
| C[C@]12C[C@@H]3C[C@](C)(C1)C[C@@](NC(=O)Nc1ccc(C(=O)NC4CCC(C(=O)NC(CO)CO)CC4)cc1F)(C3)C2 (stereo partly drawn) [C7, N-(4-((1,3-Dihydroxypropan-2-yl)carbamoyl)cyclohexyl)-4-(3-((1r,3R,5S,7r)-3,5-dimethyladamantan-1-yl)ureido)-3-fluorobenzamide] | 6.555 | – |
| C[C@]12C[C@@H]3C[C@](C)(C1)C[C@@](NC(=O)Nc1ccc(C(=O)NC4CCC(C(=O)NC(CO)(CO)CO)CC4)cc1F)(C3)C2 (stereo partly drawn) [C8, N-(4-((1,3-Dihydroxy-2-(hydroxymethyl)propan-2-yl)carbamoyl)cyclohexyl)-4-(3-((1r,3R,5S,7r)-3,5-dimethyladamantan-1-yl)ureido)-3-fluorobenzamide] | 7.653 | – |
| C[C@]12C[C@@H]3C[C@](C)(C1)C[C@@](NC(=O)Nc1ccc(CN4CCCC(C(N)=O)C4)cc1F)(C3)C2 (stereo partly drawn) [D1, 1-(4-(3-((1r,3R,5S,7r)-3,5-Dimethyladamantan-1-yl)ureido)-3-fluorobenzyl)piperidine −3-carboxamide] | 6.464 | – |
| CN(C)C(=O)C1CCCN(Cc2ccc(NC(=O)N[C@@]34C[C@@H]5C[C@@](C)(C[C@@](C)(C5)C3)C4)c(F)c2)C1 (stereo partly drawn) [D2, 1-(4-(3-((1r,3R,5S,7r)-3,5-Dimethyladamantan-1-yl)ureido)-3-fluorobenzyl)-N,N-dimethylpiperidine-3-carboxamide] | 5.354 | – |
| CCN(CC)C(=O)C1CCCN(Cc2ccc(NC(=O)N[C@@]34C[C@@H]5C[C@@](C)(C[C@@](C)(C5)C3)C4)c(F)c2)C1 (stereo partly drawn) [D3, 1-(4-(3-((1r,3R,5S,7r)-3,5-Dimethyladamantan-1-yl)ureido)-3-fluorobenzyl)-N,N-diethylpiperidine-3-carboxamide] | 4.957 | – |
| CC(O)CNC(=O)C1CCCN(Cc2ccc(NC(=O)N[C@@]34C[C@@H]5C[C@@](C)(C[C@@](C)(C5)C3)C4)c(F)c2)C1 (stereo partly drawn) [D4, 1-(4-(3-((1r,3R,5S,7r)-3,5-Dimethyladamantan-1-yl)ureido)-3-fluorobenzyl)-N-(2-hydroxypropyl)piperidine-3-carboxamide] | 6.119 | – |
| C[C@]12C[C@@H]3C[C@](C)(C1)C[C@@](NC(=O)Nc1ccc(CN4CCCC(C(=O)N(CCO)CCO)C4)cc1F)(C3)C2 (stereo partly drawn) [D5, 1-(4-(3-((1r,3R,5S,7r)-3,5-Dimethyladamantan-1-yl)ureido)-3-fluorobenzyl)-N,N-bis(2-hydroxyethyl)piperidine-3-carboxamide] | 6.879 | – |
| C[C@]12C[C@@H]3C[C@](C)(C1)C[C@@](NC(=O)Nc1ccc(CN4CCCC(C(=O)NCCO)C4)cc1F)(C3)C2 (stereo partly drawn) [D6, 1-(4-(3-((1r,3R,5S,7r)-3,5-Dimethyladamantan-1-yl)ureido)-3-fluorobenzyl)-N-(2-hydroxyethyl)piperidine-3-carboxamide] | 6.145 | – |
| C[C@]12C[C@@H]3C[C@](C)(C1)C[C@@](NC(=O)Nc1ccc(CN4CCCC(C(=O)NC(CO)CO)C4)cc1F)(C3)C2 (stereo partly drawn) [D7, N-(1,3-Dihydroxypropan-2-yl)-1-(4-(3-((1r,3R,5S,7r)-3,5-dimethyladamantan-1-yl)ureido)-3-fluorobenzyl)piperidine-3-carboxamide] | 7.008 | – |
| C[C@]12C[C@@H]3C[C@](C)(C1)C[C@@](NC(=O)Nc1ccc(CN4CCCC(C(=O)NC(CO)(CO)CO)C4)cc1F)(C3)C2 (stereo partly drawn) [D8, N-(1,3-Dihydroxy-2-(hydroxymethyl)propan-2-yl)-1-(4-(3-((1r,3R,5S,7r)-3,5-dimethyladamantan-1-yl)ureido)-3-fluorobenzyl)piperidine-3-carboxamide] | 7.992 | – |
| C[C@]12C[C@@H]3C[C@](C)(C1)C[C@@](NC(=O)Nc1ccc(CN4CCCC(C(=O)N5CCN(CCO)CC5)C4)cc1F)(C3)C2 (stereo partly drawn) [D9, 1-((1r,3R,5S,7r)-3,5-Dimethyladamantan-1-yl)-3-(2-fluoro-4-((3-(4-(2-hydroxyethyl)piperazine-1-carbonyl)piperidin-1-yl)methyl)phenyl)urea] | 5.790 | – |
